The values that follow come from patent US20220145335A1, “Bio-catalyzed Synthesis of Potent Anti-inflammatory Agents from Medroxyprogesterone Acetate” (priority 2022, published 2022).

The subject of series [1] is T-cells (peripheral blood mononuclear cells). Put plainly: T-cell proliferation assay (PHA-stimulated PBMC, tritiated thymidine incorporation). The class given is cell-based, human. The note with it: in vitro; for IC50: PHA-stimulated human PBMC, 72 h + 18 h thymidine pulse, read-out: IC50, T-cell proliferation inhibition; for T-cell proliferation inhibitory activity, result in words: compared to substrate (1) and standard prednisolone. Here is the method:
T-Cell Proliferation Assay The T-cell proliferation inhibitory activity of compounds 2-6 were evaluated by following the method of Nielsen et al. (1998). Peripheral blood mononuclear cells (PBMC) were isolated by Ficoll-Hypaque gradient centrifugation from the blood of healthy human volunteers. The concentration of the cell was adjusted to 2×10^6 cells/mL in RPMI-1640 media containing 5% FBS (Fetal bovine serum) and then 5 μg/mL phytohemagglutinin (PHA) was added into each well of a sterile 96-well plates. Different concentrations of test compounds (0.2, 1, 5, and 25 μg/mL) were then added, each in triplicate. Positive control wells contained cells and PHA, whereas the negative control contains cells alone. The plate was incubated in 5% CO2 at 37° C. for 72 hours and the cells were pulsed with 25 μL of tritiatedthymidine (0.5 μci/well), and the incubation was continued for 18 hours. Cells were harvested on a glass fiber filter, and the effect of the test compounds on proliferation was evaluated using a LS65000 liquid scintillation counter (Beckman Coulter, Fullerton, Calif., USA) quantitatively using a LS65000 liquid scintillation counter (Beckman Coulter, CA, USA). Counts per minute (CPM) were recorded, and the inhibiton of T-cell proliferation was calculated in comparison to control containing cells and PHA.

Read-outs that look alike come from different tables or passages of the source.

For `CC(=O)O[C@]1(C(C)=O)CC[C@H]2[C@@H]3C[C@H](C)C4=CC(=O)CC[C@]4(C)[C@H]3CC[C@@]21C` [Compound 1, Medroxyprogesterone acetate], the IC50 in series [1] was found to be 6.48 ± 5.18 µM.
Regarding `CC(=O)O[C@]1(C(C)=O)CC[C@H]2[C@@H]3C[C@H](C)C4=CC(=O)CC[C@]4(C)[C@H]3C(=O)C[C@@]21C` [Compound 2, 17α-Acetoxy-6α-methylpregn-4-ene-3,11,20-trione], the melting point is 238 to 240 °C. Moreover, the IC50 in series [1] (90 h) was below 0.5 µM. Also, in series [1], the IC50 was below 0.5 µM and the “T-cell proliferation inhibitory activity, result in words” value is listed as “potent inhibitors”.
`CC(=O)O[C@]1(C(C)=O)C[C@@H](O)[C@H]2[C@@H]3C[C@H](C)C4=CC(=O)CC[C@]4(C)[C@H]3C(=O)C[C@@]21C` [Compound 3, 17α-Acetoxy-15β-hydroxy-6α-methylpregn-4-ene-3,11,20-trione] registered a melting point of 265 to 268 °C. Besides, the IC50 in series [1] (90 h) worked out at 41.6 ± 8.14 µM. In series [1], the “T-cell proliferation inhibitory activity, result in words” value is recorded as “moderately active”.
`CC(=O)O[C@]1(C(C)=O)CC[C@H]2[C@@H]3C[C@@](C)(O)C4=CC(=O)CC[C@]4(C)[C@H]3C(=O)C[C@@]21C` [Compound 4, 17α-Acetoxy-6β-hydroxy-6α-methylpregn-4-ene-3,11,20-trione] returned a melting point of 232 to 233 °C. Besides, the IC50 in series [1] (90 h) amounted to 40.14 ± 0.12 µM. The “T-cell proliferation inhibitory activity, result in words” value in series [1] is recorded as “moderately active”.
The compound `CC(=O)O[C@]1(C(C)=O)C[C@@H](O)[C@H]2[C@@H]3C[C@H](C)C4=CC(=O)CC[C@]4(C)[C@H]3[C@@H](O)C[C@@]21C` [Compound 5, 17α-Acetoxy-11β,15β-dihydroxy-6α-methylpregn-4-ene-3,20-dione] displayed a melting point of 228 to 230 °C. For the same compound, the IC50 in series [1] (90 h) was below 0.5 µM. In series [1], the IC50 is below 0.5 µM and the “T-cell proliferation inhibitory activity, result in words” value was “potent inhibitors”.
For `CC(=O)O[C@]1(C(C)=O)CC[C@H]2[C@@H]3C[C@@](C)(O)C4=CC(=O)CC[C@]4(C)[C@H]3[C@@H](O)C[C@@]21C` [Compound 6, 17α-Acetoxy-11β,6β-dihydroxy-6α-methylpregn-4-ene-3,20-dione], the melting point is 152 to 154 °C. For the same compound, the IC50 in series [1] (90 h) amounted to 8.64 ± 0.02 µM. In series [1], the IC50 was found to be 8.64 ± 0.02 µM and the “T-cell proliferation inhibitory activity, result in words” value is given as “strong activity”.
Regarding `C[C@]12C=CC(=O)C=C1CC[C@@H]1[C@@H]2[C@@H](O)C[C@@]2(C)[C@H]1CC[C@]2(O)C(=O)CO` [prednisolone, reference compound], the IC50 in series [1] (90 h) and in series [1] was 9.75 ± 0.03 µM in each case.
